Our source for the GI50 and CC50 values is ChEMBL document CHEMBL3352802, “Injury-induced biosynthesis of methyl-branched polyene pigments in a white-rotting basidiomycete” (J Nat Prod, 2014).

Each structure is given as a SMILES string.

For orientation: GI50 means the concentration at which growth is held to half of that of the control. Low readings indicate greater sensitivity of the cells, high ones lower sensitivity of the cells. Usually CC50 stands for the concentration at which the toxic effect on the cells reaches its halfway point.

In data set [1] the test system is K562. In words: Antiproliferative activity against human K562 cells after 72 hrs. It is filed as functional. To be noted: K562, 72 h.
The nature of data set [2]: Cytotoxicity against human HeLa cells assessed as cell death. It is filed as cell-based.
Data set [3] relates to HUVEC. In words: Antiproliferative activity against HUVEC cells after 72 hrs. It is filed as functional. To be noted: Homo sapiens.

For the molecule `CCc1c2c(nc3ccc(OC(=O)N4CCC(N5CCCCC5)CC4)cc13)-c1cc3c(c(=O)n1C2)COC(=O)[C@]3(O)CC` [IRINOTECAN], in data set [1], growth was halved (GI50) at 1.9 µM.
As for `CC(=O)/C(C)=C/C=C/C=C\C=C\C=C\C=C\C=C\C=C/CC(=O)O`, the CC50 in data set [2] was determined as 44.1 µM. Besides, the GI50 in data set [1] was found to be 15.4 µM; in data set [3], 71.6 µM.
Molecule `CC/C(=C(\c1ccccc1)c1ccc(OCCN(C)C)cc1)c1ccccc1` [TAMOXIFEN] had a GI50 in data set [1] of 5.2 µM.
With `CC(=O)[C@]1(O)Cc2c(O)c3c(c(O)c2[C@@H](O[C@H]2C[C@H](N)[C@H](O)[C@H](C)O2)C1)C(=O)c1ccccc1C3=O` [IDARUBICIN], in data set [1], the GI50 amounted to 3.3 µM.
As for `CC(=O)/C(C)=C/C=C/C=C\C=C\C=C\C=C\C=C\C=C/C=C/CC(=O)O`, the CC50 in data set [2] was found to be 45.1 µM. Also, the GI50 stood at 1.1 µM in data set [1] and 17.4 µM in data set [3].
